Test results taken from the supplement of paper PMC13207355.
± gives the standard deviation of the averaged measurements.

Columns and labels:
Details in all cases: exposure time: 72 h
E13 [1] = patient-derived glioblastoma stem cells of classical subtype; test: surviving fraction (nuclei count normalised to DMSO); higher = more cells surviving (less toxic)
E21 [2] = patient-derived glioblastoma stem cells of mesenchymal subtype; test: as above
E28 [3] = patient-derived glioblastoma stem cells of classical subtype; test: as above
E34 [4] = patient-derived glioblastoma stem cells of proneural subtype; test: as above
E57 [5] = patient-derived glioblastoma stem cells of mesenchymal subtype; test: as above
FT3469 [6] = normal neural stem cell line; test: as above
E13 [7] = test: phenotypic distance (Euclidean, principal components) from DMSO controls (arbitrary units); higher = stronger morphological change
E21 [8] = test: as above
E28 [9] = test: as above
E34 [10] = test: as above
E57 [11] = test: as above
FT3469 [12] = test: as above
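Wherever phenotypic distance (Euclidean, principal components) from DMSO controls is given: cell Painting imaging in 384-well plates, CellProfiler features reduced to at least 20 principal components, Euclidean distance versus same-plate DMSO vehicle wells (0.1% v/v), median over six images per well.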
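Wherever surviving fraction (nuclei count normalised to DMSO) is given: nuclei counted by high-content imaging of Hoechst-stained cells in laminin-coated 384-well plates, relative to 0.1% DMSO vehicle wells, with staurosporine as cell-death control.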

## CCn1cc(-c2ccnc3[nH]c(-c4cccc(CN(C)C)c4)cc23)c(-c2ccc(NC(=O)N(C)C)cc2)n1
E13 [1]; 4.1 nM
  surviving fraction: 0.468 ± 0.038
E13 [1]; 12.3 nM
  surviving fraction: 0.437 ± 0.068
E13 [1]; 37 nM
  surviving fraction: 0.458 ± 0.033
E13 [1]; 111.1 nM
  surviving fraction: 0.46 ± 0.046
E13 [1]; 333.3 nM
  surviving fraction: 0.49 ± 0.014
E13 [1]; 1000 nM
  surviving fraction: 0.456 ± 0.065
E13 [1]; 3000 nM
  surviving fraction: 0.439 ± 0.044
E21 [2]; 4.1 nM
  surviving fraction: 0.418 ± 0.088
E21 [2]; 12.3 nM
  surviving fraction: 0.428 ± 0.015
E21 [2]; 37 nM
  surviving fraction: 0.442 ± 0.031
E21 [2]; 111.1 nM
  surviving fraction: 0.449 ± 0.086
E21 [2]; 333.3 nM
  surviving fraction: 0.359 ± 0.025
E21 [2]; 1000 nM
  surviving fraction: 0.4316 ± 0.0038
E21 [2]; 3000 nM
  surviving fraction: 0.314 ± 0.053
E28 [3]; 4.1 nM
  surviving fraction: 0.639 ± 0.046
E28 [3]; 12.3 nM
  surviving fraction: 0.603 ± 0.008
E28 [3]; 37 nM
  surviving fraction: 0.542 ± 0.039
E28 [3]; 111.1 nM
  surviving fraction: 0.5559 ± 0.002
E28 [3]; 333.3 nM
  surviving fraction: 0.549 ± 0.016
E28 [3]; 1000 nM
  surviving fraction: 0.53 ± 0.023
E28 [3]; 3000 nM
  surviving fraction: 0.397 ± 0.11
E34 [4]; 4.1 nM
  surviving fraction: 0.664 ± 0.086
E34 [4]; 12.3 nM
  surviving fraction: 0.622 ± 0.079
E34 [4]; 37 nM
  surviving fraction: 0.787 ± 0.074
E34 [4]; 111.1 nM
  surviving fraction: 0.815 ± 0.13
E34 [4]; 333.3 nM
  surviving fraction: 0.842 ± 0.02
E34 [4]; 1000 nM
  surviving fraction: 0.8037 ± 0.0053
E34 [4]; 3000 nM
  surviving fraction: 0.673 ± 0.082
E57 [5]; 4.1 nM
  surviving fraction: 0.385 ± 0.037
E57 [5]; 12.3 nM
  surviving fraction: 0.338 ± 0.016
E57 [5]; 37 nM
  surviving fraction: 0.287 ± 0.016
E57 [5]; 111.1 nM
  surviving fraction: 0.325 ± 0.0066
E57 [5]; 333.3 nM
  surviving fraction: 0.306 ± 0.016
E57 [5]; 1000 nM
  surviving fraction: 0.314 ± 0.021
E57 [5]; 3000 nM
  surviving fraction: 0.221 ± 0.011
FT3469 [6]; 4.1 nM
  surviving fraction: 0.759 ± 0.042
FT3469 [6]; 12.3 nM
  surviving fraction: 0.76 ± 0.051
FT3469 [6]; 37 nM
  surviving fraction: 0.788 ± 0.021
FT3469 [6]; 111.1 nM
  surviving fraction: 0.844 ± 0.086
FT3469 [6]; 333.3 nM
  surviving fraction: 0.708 ± 0.033
FT3469 [6]; 1000 nM
  surviving fraction: 0.729 ± 0.056
FT3469 [6]; 3000 nM
  surviving fraction: 0.591 ± 0.044
E13 [7]; 4.1 nM
  phenotypic distance: 4.52 ± 0.16
E13 [7]; 12.3 nM
  phenotypic distance: 4.8 ± 0.56
E13 [7]; 37 nM
  phenotypic distance: 4.56 ± 0.091
E13 [7]; 111.1 nM
  phenotypic distance: 5.0354 ± 0.00092
E13 [7]; 333.3 nM
  phenotypic distance: 4.64 ± 0.07
E13 [7]; 1000 nM
  phenotypic distance: 4.84 ± 0.39
E13 [7]; 3000 nM
  phenotypic distance: 3.74 ± 0.68
E21 [8]; 4.1 nM
  phenotypic distance: 4.9 ± 0.059
E21 [8]; 12.3 nM
  phenotypic distance: 5.1 ± 0.052
E21 [8]; 37 nM
  phenotypic distance: 5.06 ± 0.62
E21 [8]; 111.1 nM
  phenotypic distance: 5.32 ± 0.66
E21 [8]; 333.3 nM
  phenotypic distance: 5.21 ± 0.49
E21 [8]; 1000 nM
  phenotypic distance: 4.91 ± 0.57
E21 [8]; 3000 nM
  phenotypic distance: 5.07 ± 0.28
E28 [9]; 4.1 nM
  phenotypic distance: 2.81 ± 0.22
E28 [9]; 12.3 nM
  phenotypic distance: 2.81 ± 0.44
E28 [9]; 37 nM
  phenotypic distance: 2.55 ± 0.41
E28 [9]; 111.1 nM
  phenotypic distance: 2.69 ± 0.18
E28 [9]; 333.3 nM
  phenotypic distance: 2.57 ± 0.28
E28 [9]; 1000 nM
  phenotypic distance: 2.83 ± 0.15
E28 [9]; 3000 nM
  phenotypic distance: 2.95 ± 0.096
E34 [10]; 4.1 nM
  phenotypic distance: 2.75 ± 0.24
E34 [10]; 12.3 nM
  phenotypic distance: 2.68 ± 0.43
E34 [10]; 37 nM
  phenotypic distance: 2.46 ± 0.13
E34 [10]; 111.1 nM
  phenotypic distance: 2.4 ± 0.34
E34 [10]; 333.3 nM
  phenotypic distance: 2.43 ± 0.12
E34 [10]; 1000 nM
  phenotypic distance: 2.62 ± 0.25
E34 [10]; 3000 nM
  phenotypic distance: 1.93 ± 0.35
E57 [11]; 4.1 nM
  phenotypic distance: 4.79 ± 0.41
E57 [11]; 12.3 nM
  phenotypic distance: 4.9 ± 0.57
E57 [11]; 37 nM
  phenotypic distance: 6.03 ± 0.14
E57 [11]; 111.1 nM
  phenotypic distance: 5.9 ± 0.088
E57 [11]; 333.3 nM
  phenotypic distance: 6.027 ± 0.058
E57 [11]; 1000 nM
  phenotypic distance: 5.9 ± 0.4
E57 [11]; 3000 nM
  phenotypic distance: 5.4 ± 0.3
FT3469 [12]; 4.1 nM
  phenotypic distance: 1.96 ± 0.42
FT3469 [12]; 12.3 nM
  phenotypic distance: 2.32 ± 0.26
FT3469 [12]; 37 nM
  phenotypic distance: 2 ± 0.04
FT3469 [12]; 111.1 nM
  phenotypic distance: 2.07 ± 0.15
FT3469 [12]; 333.3 nM
  phenotypic distance: 2.13 ± 0.28
FT3469 [12]; 1000 nM
  phenotypic distance: 2.98 ± 1.3
FT3469 [12]; 3000 nM
  phenotypic distance: 2.08 ± 0.33
